In publication PMC10461100, “Transcuticular calcium imaging as a tool for the functional study of insect odorant receptors” (Frontiers in Molecular Neuroscience, 2023):

Tests used:
SlitOR29 = system: T1, SlitOR29; test: transcuticular calcium imaging (GCaMP6s), dose-response; parameters: species or system Spodoptera littoralis; settings: volatile stimulus; dose loaded on filter paper (in mineral oil), not a concentration; in vivo fly antenna; 1 s puff
T1 construct: full-length UAS transgene in Drosophila melanogaster ab3A basiconic neurons in place of DmelOR22a/b; endogenous Drosophila Orco; GCaMP6s reporter co-expressed; with Odorant receptor coreceptor (endogenous, Drosophila melanogaster)

SlitOR6 = molecular target: T2, SlitOR6 (Spodoptera littoralis, UniProt I6LJY9); test: transcuticular calcium imaging (GCaMP6m), dose-response; settings: volatile stimulus; dose loaded on filter paper (in hexane), not a concentration; in vivo fly antenna; 1 s puff
T2 construct: gene OR6; full-length UAS transgene in Drosophila melanogaster at1 trichoid neurons in place of DmelOR67d; endogenous Drosophila Orco; GCaMP6m reporter co-expressed; with Odorant receptor coreceptor (endogenous, Drosophila melanogaster)
T2 sequence (I6LJY9 1-432): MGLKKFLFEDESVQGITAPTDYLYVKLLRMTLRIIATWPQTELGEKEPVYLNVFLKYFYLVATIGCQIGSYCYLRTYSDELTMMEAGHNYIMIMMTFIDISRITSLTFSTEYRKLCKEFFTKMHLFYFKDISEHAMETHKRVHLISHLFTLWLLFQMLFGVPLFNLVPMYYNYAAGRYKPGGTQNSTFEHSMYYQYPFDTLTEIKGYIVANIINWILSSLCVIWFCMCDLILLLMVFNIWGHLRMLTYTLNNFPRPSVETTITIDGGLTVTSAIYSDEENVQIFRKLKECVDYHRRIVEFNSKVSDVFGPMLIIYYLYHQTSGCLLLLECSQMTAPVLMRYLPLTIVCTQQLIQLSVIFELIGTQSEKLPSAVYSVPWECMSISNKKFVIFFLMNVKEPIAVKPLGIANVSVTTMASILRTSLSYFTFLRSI
T2 sequence (Q9VNB5 1-486 partner): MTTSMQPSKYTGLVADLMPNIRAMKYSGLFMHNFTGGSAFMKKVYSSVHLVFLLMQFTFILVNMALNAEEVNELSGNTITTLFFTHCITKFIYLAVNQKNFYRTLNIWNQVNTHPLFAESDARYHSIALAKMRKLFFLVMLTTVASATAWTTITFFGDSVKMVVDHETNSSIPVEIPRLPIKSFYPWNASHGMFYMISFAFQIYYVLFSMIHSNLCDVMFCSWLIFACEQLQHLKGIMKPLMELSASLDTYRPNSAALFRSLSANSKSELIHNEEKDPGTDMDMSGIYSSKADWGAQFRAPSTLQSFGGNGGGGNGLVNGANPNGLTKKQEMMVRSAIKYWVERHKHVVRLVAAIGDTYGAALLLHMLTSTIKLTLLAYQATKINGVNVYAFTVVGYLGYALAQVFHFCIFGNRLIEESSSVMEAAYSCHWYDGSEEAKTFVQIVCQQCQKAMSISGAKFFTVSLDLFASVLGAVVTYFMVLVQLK

EC50 (SlitOR29) [µg]	EC50 (SlitOR6) [µg]	Compound
1.27 ± 0.37	–	C=C/C(C)=C/CC=C(C)C [(E)-ocimene]
11.52 ± 0.70	–	CC/C=C\CCOC(C)=O [(Z)-3-hexenyl acetate]
–	0.96 ± 0.14	C/C=C/C/C=C\CCCCCCCCOC(C)=O [(Z,E)-9,12-tetradecadienyl acetate]
